Data on four compounds can be found in ChEMBL document CHEMBL1158904, “New metabolites from the sponge Spongia agaricina” (J Nat Prod, 1998).

Converted amounts (≈) assume the structure as drawn.

Type in all cases: functional, cell-based
The test system of one test is P388. Briefly: Cytotoxicity against mouse P388 cells.
Another test deals with SK-MEL-28. Briefly: Cytotoxicity against human SK-MEL-28 cells.
Another test has as its system A549. Put plainly: Cytotoxicity against human A549 cells.
In a further test the test system is HT-29. Put plainly: Cytotoxicity against human HT-29 cells.

Broadly, the IC50 is the concentration at which inhibition is half-maximal. Low values mean greater potency, high ones weaker potency. Regarding `CC(C)[C@@H](C)/C=C/[C@@H](C)[C@H]1CC[C@@H](C2=C[C@@H]3O[C@@]34C[C@@H](O)CC[C@]4(C)C2=O)[C@]1(C)CC=O` [3-O-DEACETYLLUFFASTEROL B], the IC50 with P388, with SK-MEL-28, in the test on A549 and in the test on HT-29 was 1 µg/mL (≈ 2.26 µM) each time.

As to `CC(=O)O[C@H]1C[C@H]2[C@]3(C)CC[C@H]4C(C)(C)CCC[C@]4(C)[C@H]3C[C@@H](O)[C@]2(C)[C@H]2OC(=O)C=C12`, the IC50 in the test with P388, in the test with SK-MEL-28, in the test with A549 and in the test on HT-29 was 5 µg/mL (≈ 11.2 µM) each time.

For the compound `CC(=O)O[C@@H]1C[C@H]2[C@]3(C)CC[C@H]4C(C)(C)CCC[C@]4(C)[C@H]3C[C@@H](O)[C@]2(C)c2occc21`, the IC50 in the test with P388, in the test with SK-MEL-28, with A549 and in the test on HT-29 was 1 µg/mL (≈ 2.33 µM) in each case.

Consider `C=C(CC[C@@H](C)[C@H]1CC[C@@H](C2=C[C@@H]3O[C@@]34C[C@@H](O)CC[C@]4(C)C2=O)[C@]1(C)CC=O)C(C)C`, for which the IC50 in the test on P388, in the test on SK-MEL-28, with A549 and in the test with HT-29 was 1 µg/mL (≈ 2.26 µM) each time.
